Data from patent publication US20240041050A1, “CELL PENETRATING PEPTIDE MEDIATED RNA TRANSDUCTION WITHIN INSECT CELLS” (PIONEER HI-BRED INTERNATIONAL, INC., priority 2020, published 2024).
Peptide text beside a SMILES is read from it.

Test system: DvWL2 cells
Assay: CPP-mediated delivery of mCherry mRNA cargo into insect cells
Type: cell-based, Diabrotica virgifera virgifera
Details: complex of 75 μM unlabeled CPP and 10 μg mCherry mRNA, overnight
Excerpt: Sample preparation and analysis methods were based on those previously reported (Jafari et al. (201 4) “Serum stability and physicochemical characterization of a novel amphipathic peptide C6M 1 for siRNA delivery”, PLoS One, 9(5), e97797; and Gillet et al. (2017) “Investigating Engineered Ribonucleoprotein Particles to Improve Oral RNAi Delivery in Crop Insect Pests”, Frontiers in Physiology, 8(256), doi: 10.3389/fphys.2017.00256). Reagents are described in Examples 1 and 2. Nanocomplex samples were prepared in one of several ways, depending on type of CPP, RNA, or assay. […] Reaction volumes added to cells were 6.38 μL CPP and 6.38 μL mRNA. Final optimal CPP concentration was assessed by amount of fluorescent signal apparent within cells. For insect cell-based assays with CPP-YFP·Cy3-dsRNA or CPP·dsRNA, first a complex formation solution was prepared in molecular biology-grade water containing 90 mg·mL^−1 maltose, 9 mg·mL^−1 mannitol, 392. 16 mM CaCI2, pH 7.0, and vacuum-filtered using Corning™ Disposable Vacuum Filter and Storage System containing a cellulose nitrate filter. Then, increasing amounts of CPP-YFP were added to Cy3-dsRNA, from a molar ratio (CPP-YFP:Cy3-dsRNA) of 1:4 through 8:1 and incubated protected from light at 25° C. for 90 minutes prior to assessment via gel shift and DLS. Reaction volumes added per cell well were comprised of 17 μL reaction solution, 1 μL CPP, 1 μL dsRNA, and 1 μL molecular biology grade water; reaction sizes for larger total volumes were increased in increments of 20 μL and component ratio was held constant to maintain an ionic strength of […]. Final optimal molar ratio selected for cell experiments were determined by increase of the apparent size of the Cy3-dsRNA band on a native agarose gel (FIG. 2A and FIG. 2B), and/or appearance and increase in size of the complex peak detected by a Zetasizer Ultra (Malvern Panalytical, Malvern, United Kingdom) DLS instrument (FIG. 2C). […] Final optimal BAPC1 concentration was assessed by amount of fluorescent signal apparent within cells. […]

N=C(N)NCCC[C@H](NC(=O)[C@H](Cc1c[nH]c2ccccc12)NC(=O)[C@H](CCCNC(=N)N)NC(=O)[C@@H](N)CS)C(=O)N[C@@H](Cc1c[nH]c2ccccc12)C(=O)N[C@@H](CCCCN)C(=O)N[C@@H](CS)C(=O)N[C@@H](CS)C(=O)N[C@@H](CCCCN)C(=O)N[C@@H](CCCCN)C(=O)O [CyLoP-1, CRWRWKCCKK] (H-CRWRWKCCKK-OH; N-terminus and C-terminus assumed)
fluorescent protein translated from delivered mCherry mRNA (fluorescent signal inside cells): Translation of mRNA into a functional fluorescent protein occurred
